Results from US7049396B2, “Synthetic peptides that inhibit leukocyte superoxide anion production and/or attract leukocytes” (priority 1995, dated 2006).
Where a SMILES comes first, the peptide text is derived from it.

Legend:
[1] = tested on: 47 kDa neutrophil cytosol protein; assay: Ligand-blot binding assay with biotinylated PR-39, porcine cytosol; conditions: biotinylated PR-39 probe
recombinant p47^phox = recombinant p47^phox (Homo sapiens, UniProt P14598); assay: Competitive ligand-blot binding assay
Description: Competitive ligand-blot assays were performed by incubating recombinant p47^phox (0.02 μM) with or without various concentrations (0.006, 0.06, and 0.6 μM) of PR-39 for 1 hr. at 37° C. and then with biotinylated PR-39 (0.06 μM) for an additional 1 hr. at 37° C. The solutions were dialyzed against ddH2O for 1 hr. at 4° C. before blotting to nitrocellulose (5 μl) and detection with a streptavidin alkaline-phosphatase detection system as described above.

[2] = tested on: rat intestinal epithelial cell line, IEC-6; assay type: cell-based
Description: Influence of PR-26 and PR-39 on intestinal epithelial cells. A nonradioactive assay based on the cellular conversion by viable cells of a tetrazolium salt into a blue formazan product was used to determine if PR-26 or PR-39 were toxic to intestinal epithelial cells. Ninety-six-well microtiter plates were seeded with the rat intestinal epithelial cell line, IEC-6, (5×10^4 cells/well) in DMEM containing 10% fetal bovine serum, 1% antibiotic/antimycotic, and […], and incubated at 37° C. for three days to achieve confluency. […] Well contents then were aspirated and monolayers were washed with medium. Medium (100 μl) and 15 μl of dye solution (Promega, Madison, Wis.) were added to each well and plates were incubated for 4 hr. at 37° C. Solubilization buffer (100 μl, Promega, Madison, Wis.) was added to each well and plates were incubated overnight to allow solubilization of the formazan crystals. Absorbance then was read at 570 nm using a microplate reader.

[3] = tested on: S. choleraesuis, ATCC 6962; assay: Bacterial susceptibility to neutrophil phagocytosis; assay type: cell-based, Salmonella choleraesuis; conditions: bacteria treated at 8 MICs
Description: Plates were incubated at 37° C. for 18 hr. […] Viable bacteria were counted. Tests were repeated on three different days. […] The results were expressed as the mean ± standard deviation. […] S. choleraesuis, ATCC 6962 was used in this experiment. […] Slides were stained with LeukoStat solutions (Fisher, Pittsburgh, Pa.). […] At least 200 neutrophils were examined. […] Tests were repeated on three different days. Results were expressed as the mean±standard deviation.

[4] = tested on: S. typhimurium, KSU isolate 7; assay: Lawn-spotting antibacterial assay (S. typhimurium); assay type: cell-based, Salmonella typhimurium; conditions: 5 μl spotted, inactive segments up to 1 mg/ml
[5] = biological target: 47 kDa neutrophil cytosol protein (Homo sapiens, UniProt P14598); assay: Ligand-blot binding assay with biotinylated PR-39, human cytosol; conditions: biotinylated PR-39 probe
[6] = biological target: T1, cell-free NADPH oxidase (human neutrophil cytosol and membranes) (Homo sapiens, UniProt P14598); assay: Cell-free O2- production assay; assay type: biochemical
T1 construct: 10^6 cell equivalents of human neutrophil cytosol; from tissue; host or cells: human peripheral blood neutrophils (cytosol and deoxycholate-solubilized membranes)
T1 sequence (P14598 1-390): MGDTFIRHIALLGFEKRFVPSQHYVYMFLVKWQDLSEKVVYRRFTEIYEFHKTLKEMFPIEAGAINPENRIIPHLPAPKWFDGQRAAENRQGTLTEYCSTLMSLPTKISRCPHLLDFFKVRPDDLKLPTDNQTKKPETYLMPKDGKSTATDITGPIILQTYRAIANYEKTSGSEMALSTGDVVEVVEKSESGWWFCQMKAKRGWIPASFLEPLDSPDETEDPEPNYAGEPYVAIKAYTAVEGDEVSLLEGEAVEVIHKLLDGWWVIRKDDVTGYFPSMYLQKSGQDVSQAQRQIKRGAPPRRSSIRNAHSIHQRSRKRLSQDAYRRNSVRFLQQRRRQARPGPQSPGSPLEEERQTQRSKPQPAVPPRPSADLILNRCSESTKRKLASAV
Description: Reactions (100 μl) contained 10^6 cell equivalents of human neutrophil cytosol and 5×10^5 cell equivalents of deoxycholate-solubilized membranes prepared from human peripheral blood neutrophils. […] Control reactions contained 5 μg of superoxide dismutase. Superoxide anion generation was calculated based on superoxide dismutase-inhibitable changes in cytochrome c absorbance observed at 551 nm. The reactions were followed for 20 min. after addition of arachidonic acid, with absorbance readings taken at 1-min. intervals. […] Determinations were based on reactions performed in duplicate. • (ii) Binding assays. Neutrophils were disrupted by sonication, and unbroken cells, debris, and granules were removed by centrifuigation (13,000×g for 60 min.). Cytosol fractions were prepared by centrifugation (100,000 g for 45 min.) of the supernatants to remove residual membranes. Cytosolic proteins (15 μg in reducing buffer) were separated on a 7.5% SDS PAGE gel, transferred to PVDF membranes, and probed with biotinylated PR-39 (0.3 μM) for 2 hr. Binding between PR-39 and cytosolic proteins were visualized by a chemiluminescent streptavidin alkaline phosphatase system using an Epson scanner (Torrance, Calif.) and the NIH Image program. PR-39 was labeled with biotin hydrazide at the carboxy-terminus (Pierce Chemical Co., Rockford, Ill.) and purified by gel filtration chromatography.

## CC[C@H](C)[C@H](NC(=O)[C@H](CCCNC(=N)N)NC(=O)[C@@H]1CCCN1C(=O)[C@@H]1CCCN1C(=O)[C@H](CC(C)C)NC(=O)[C@H](CCCNC(=N)N)NC(=O)[C@@H]1CCCN1C(=O)[C@@H]1CCCN1C(=O)[C@H](Cc1ccccc1)NC(=O)[C@H](Cc1ccccc1)NC(=O)[C@@H]1CCCN1C(=O)[C@@H]1CCCN1C(=O)[C@@H]1CCCN1C(=O)[C@H](CCCNC(=N)N)NC(=O)[C@@H]1CCCN1C(=O)[C@H](CCCNC(=N)N)NC(=O)[C@@H]1CCCN1C(=O)[C@H](CC(C)C)NC(=O)[C@H](Cc1ccc(O)cc1)NC(=O)[C@@H]1CCCN1C(=O)[C@@H]1CCCN1C(=O)[C@H](CCCNC(=N)N)NC(=O)[C@@H]1CCCN1C(=O)[C@H](CCCNC(=N)N)NC(=O)[C@H](CCCNC(=N)N)NC(=O)[C@@H](N)CCCNC(=N)N)C(=O)N1CCC[C@H]1C(=O)N1CCC[C@H]1C(=O)NCC(=O)N[C@@H](Cc1ccccc1)C(=O)N1CCC[C@H]1C(=O)N1CCC[C@H]1C(=O)N[C@@H](CCCNC(=N)N)C(=O)N[C@@H](Cc1ccccc1)C(=O)N1CCC[C@H]1C(=O)N1CCC[C@H]1C(=O)N[C@@H](CCCNC(=N)N)C(=O)N[C@@H](Cc1ccccc1)C(=O)N1CCC[C@H]1C(=O)O [PR-39] (H-RRRPRPPYLPRPRPPPFFPPRLPPRIPPGFPPRFPPRFP-OH; N-terminus and C-terminus assumed)
[1]
  binding to 47 kDa cytosolic protein: bound
Recombinant p47^phox; tenfold excess of unlabeled peptide
  inhibition of binding of biotinylated PR-39 to recombinant p47phox: completely blocked
Recombinant p47^phox; unlabeled peptide 0.06 μM, equimolar to labeled
  inhibition of binding of biotinylated PR-39 to recombinant p47phox: 90%
[2]
  concentration at which cytotoxicity occurred: 500 nM
[3]
  phagocytic index of porcine neutrophils: did not increase
[4]
  antibacterial activity (clear zone on bacterial lawn): had antibacterial activity
[5]
  binding to 47 kDa cytosolic protein: bound
[6]
  IC50: ~2 µM
[6]; cell-free assay, concentrations greater than 5 μM
  inhibition of O2- generation: completely inhibited
